{"source": "patent US12455218B2", "about": "“Methods and compositions for reversing platelet clumping” (Truvian Sciences, Inc., priority 2019, dated 2025)", "assay_type_in_all_cases": "cell-based", "key": {"[1]": {"test_system": "platelet clumps in LiHep blood samples", "assay": "Platelet count per field of view in blood smears of LiHep blood, Azure B stain", "conditions": "for recovery of platelet counts: FIG. 3, fingerstick LiHep blood, vortexed, Azure B", "procedure": "A series of anti-coagulants are tested for their respective effect in reversing platelet clumping formed in blood samples. Fresh fingerstick blood samples were collected into EDTA and LiHep blood collection tubes as described above. Concentrated EDTA was dried for at least one hour at room temperature in microcentrifuge tubes using a vacuum drying oven. Immediately following collection, a 200 uL fraction of the LiHep sample (“LiHep+EDTA”) was passed through two separate EDTA SAFE-T-FIL™ capillary tubes for a double exposure to the EDTA anticoagulant resulting in a final concentration of about 8.8 mM EDTA in blood Another 200 uL fraction (“LiHep+TruEDTA”) was added to the previously prepared vacuum-dried EDTA resulting in a final concentration of 20 mM EDTA in blood. At 30 minutes post collection, another 200 uL fraction of the LiHep sample (“LiHep+EDTA 30 min”) was passed through two separate EDTA SAFE-T-FILL™ capillary tubes for a double exposure to the EDTA anticoagulant. All samples were pulse vortexed with three, five-second bursts at the maximum vortex setting immediately following addition to EDTA. At 30 minutes post collection, all samples were then stained using an Azure B solution from the Differential Quik Stain™ Kit (Modified Giemsa) from Polysciences, Inc. Azure B was added to blood sample at a 1:1 ratio and pipette mixed. A standard blood smear was performed on all samples. Cells were imaged using the bright field setting on an Echo Revolve™ microscope at 20× magnification. Between six to seven different fields of view were captured. Images were analyzed using Image J and the number of platelets present in each field of view was manually counted. Error bars indicate standard deviation of the data set.\nParticularly, fresh fingerstick blood samples were collected into EDTA and LiHep blood collection tubes as described above. Concentrated EDTA was dried for at least one hour at room temperature in microcentrifuge tubes using a vacuum drying oven. […] Images were analyzed using Image J and the number of platelets present in each field of view was manually counted. […]"}, "[2]": {"test_system": "white blood cells", "assay": "White blood cell morphology, AO stain, fluorescence microscopy", "conditions": "FIG. 2, fingerstick LiHep blood, 60 M EDTA, 3×EDTA sample 60 mM", "procedure": "Next, it was examined whether EDTA exposure impacts blood cell morphology. Particularly, fresh fingerstick blood samples were collected into EDTA and LiHep blood collection tubes. Concentrated EDTA was dried for at least one hour at room temperature in microcentrifuge tubes using a vacuum drying oven. A 200 uL fraction of the LiHep sample (“1×”) was added to the previously prepared vacuum-dried EDTA resulting in a final concentration of 20 mM EDTA in blood. Another 200 uL fraction of the LiHep sample (“3×”) was added to the previously prepared vacuum-dried EDTA resulting in a final concentration of 60 mM EDTA in blood. […] Cells were imaged using the fluorescence setting on an Echo Revolve microscope. […] To capture the green fluorescence of AO, which labeled the nuclei of white blood cells, a blue LED light source with excitation filter at 470/40 nm was paired with emission filter at 525/50 nm, with a dichroic mirror at 495 nm. To capture the red fluorescence of AO, which labeled the cytoplasmic compartments of white blood cells, the same blue LED light source was paired with emission filter at 635/60 nm with a dichroic mirror at 600 nm. […]\nParticularly, fresh venipuncture blood samples were collected into EDTA and LiHep blood collection tubes as described above. […] Cells were imaged using the fluorescence setting on an Echo Revolve™ microscope. […]"}, "[3]": {"test_system": "platelets in venipuncture and fingerstick blood", "assay": "Platelet clumping after blood collection into anticoagulant tubes", "conditions": "venipuncture and fingerstick blood collected in anticoagulant tubes", "from_the_text": "Blood used in the following examples came from either venipuncture or fingerstick samples. Standard phlebotomy practices were followed to collect donor venipuncture blood in either BD Vacutainer′ EDTA blood collection tubes or BD Vacutainer′ PST lithium heparin plasma separation blood collection tubes. Standard phlebotomy practices were followed to collect donor fingerstick blood in either LiHep SAFE-T-FILL™ tubes or EDTA SAFE-T-FIL™tubes. All blood samples were stored at room temperature until use. Samples were analyzed within 12 hours of blood collection.\nPlatelet clumping appeared to occur spontaneously following blood collection. For all studies, an EDTA control sample was used in which blood from either venipuncture or fingerstick were collected into EDTA tubes. EDTA venipuncture control samples were collected into EDTA blood collection tubes from the same donor using the same port as the lithium heparin samples."}, "[4]": {"test_system": "platelet clumps in LiHep blood samples", "assay": "Platelet count per field of view in blood smears of LiHep blood, acridine orange (AO) stain", "conditions": "for declumping activity / increase in platelet count due to reversal of platelet clumping: Example 8, FIG. 7 and 8, LiHep blood", "experimental": "Particularly, fresh venipuncture blood samples were collected into EDTA and LiHep blood collection tubes as described above. Concentrated EDTA was dried for at least one hour at room temperature in microcentrifuge tubes using a vacuum drying oven. […] This sample was pulse vortexed with three, ten second bursts at the maximum vortex setting. […] This sample was sonicated in a water bath sonicator for 1 minute. […] This sample was pipette mixed using a Tecan Carvo Omni™ automated pipettor. To mix, 150 uL of sample was aspirated and dispensed at 1 mL/s 0.5 mm from the bottom of the tube. This mixing cycle was repeated 30 times. All samples were then stained using an acridine orange (AO). AO was added to blood sample at a final concentration of 10 ug/mL, pipette mixed and incubated for 5 minutes at room temperature. A standard blood smear was performed on all samples. A coverslip was placed on top of the sample immediately following the blood smear to prevent sample drying out. Cells were imaged using the fluorescence setting on an Echo Revolve™ microscope. AO is a pH-sensitive cationic dye. When bound to double-stranded DNA (for example, in the nuclear compartment), the dye fluoresces green with an excitation maximum at 502 nm and emission maximum at 525 nm. When bound to single stranded DNA and RNA (for example, in the cytoplasm) or when the dye is in an acidic environment (for example, in lysosomes), the dye fluoresces red with an excitation maximum at 460 nm and emission maximum at 650 nm. […] Between five to eight different fields of view were captured. Images were analyzed using Image J and the number of platelets present in each field of view was manually counted. Error bars indicate standard deviation of the data set.\nParticularly, fresh venipuncture blood samples were collected into EDTA and LiHep blood collection tubes as described above. Concentrated EDTA was dried for at least one hour at room temperature in microcentrifuge tubes using a vacuum drying oven. […] Both samples were pulse vortexed with three, ten-second bursts at the maximum vortex setting. Samples were then stained using acridine orange (AO). AO was added to blood sample at a final concentration of 10 ug/mL, pipette mixed and incubated for 5 minutes at room temperature. A standard blood smear was performed on all samples. A coverslip was placed on top of the sample immediately following the blood smear to prevent sample drying out. Cells were imaged using the fluorescence setting on an Echo Revolve™ microscope. AO is a pH-sensitive cationic dye. When bound to double-stranded DNA (for example, in the nuclear compartment), the dye fluoresces green with an excitation maximum at 502 nm and emission maximum at 525 nm. When bound to single stranded DNA and RNA (for example, in the cytoplasm) or when the dye is in an acidic environment (for example, in lysosomes), the dye fluoresces red with an excitation maximum at 460 nm and emission maximum at 650 nm. […] Between five to seven different fields of view were captured. Images were analyzed using Image J and the number of platelets present in each field of view was manually counted. Error bars indicate standard deviation of the data set.\nTo investigate the ability of citric acid to reverse platelet clumping, venipuncture blood samples were collected into EDTA and LiHep blood collection tubes as described above. […] A second 15 μL fraction of LiHep blood was treated with citric acid at a final concentration of 5 mM. To encourage platelet declump, samples were then vortexed. Samples were stained using acridine orange and imaged using an Echo Revolve™ Microscope at 20× magnification. Images were analyzed using Image J and the number of platelets present in each field of view (FOV) across 10 FOVs was manually counted.\nVenipuncture blood samples were collected into EDTA and LiHep blood collection tubes as described above. A 15 μL aliquot of LiHep blood was treated with 5 mM NTA an vortexed vigorously."}}, "note": "“Also recorded” adds a separate entry of the source.", "data": [{"compound": "O=C(O)CN(CCN(CC(=O)O)CC(=O)O)CC(=O)O", "note": "[EDTA, ethylenediaminetetraacetic acid]", "values": [{"measurement": "recovery of platelet counts", "setting": "[1]; 17.6 mM EDTA (LiHep+EDTA)", "result": "greater than 40%"}, {"measurement": "recovery of platelet counts", "setting": "[1]; 20 mM EDTA (LiHep+TruEDTA)", "result": "greater than 40%"}, {"measurement": "reversed platelet clumping as compared to control groups", "setting": "[1]; FIG. 3 legend, blood collected in LiHep tubes", "result": "about 40%"}, {"measurement": "morphology of white blood cells", "setting": "[2]", "result": "negatively impact"}, {"measurement": "platelet clumping following blood collection", "setting": "[3]", "result": "no detectible platelet clumping"}]}, {"compound": "O=C(O)CN(CC(=O)O)CC(=O)O", "note": "[NTA, N,N-bis(carboxymethyl)glycine]", "values": [{"measurement": "declumping activity / increase in platelet count due to reversal of platelet clumping", "setting": "[4]", "result": "showed declumping activity; also recorded: increase in platelet count"}, {"measurement": "recovery of platelets", "setting": "[4]; FIG. 8, venipuncture LiHep blood, 5 mM NTA, vortexed vigorously, 10 FOVs", "result": 71, "unit": "%"}]}, {"compound": "O=C(O)CC(O)(CC(=O)O)C(=O)O", "note": "[citric acid, 2-hydroxypropane-1,2,3-tricarboxylic acid]", "values": [{"measurement": "declumping activity / increase in platelet count due to reversal of platelet clumping", "setting": "[4]", "result": "increase in platelet count"}, {"measurement": "declumping activity / increase in platelet count due to reversal of platelet clumping", "setting": "[4]; listed as Citric acid", "result": "showed declumping activity"}, {"measurement": "recovery of platelet counts", "setting": "[4]; FIG. 7, venipuncture LiHep blood, citric acid 5 mM, vortexed, 10 FOVs", "result": 66, "unit": "%"}]}, {"compound": "Lithium heparin", "values": [{"measurement": "platelet clumping following blood collection", "setting": "[3]", "result": "Significant amount of platelet clumping"}]}]}
